The first assay concerns the target T1, human CaSR (Homo sapiens, UniProt P41180).
T1 construct: expressed in transfected cells; host or cells: CHO cells
T1 sequence (P41180 20-1078): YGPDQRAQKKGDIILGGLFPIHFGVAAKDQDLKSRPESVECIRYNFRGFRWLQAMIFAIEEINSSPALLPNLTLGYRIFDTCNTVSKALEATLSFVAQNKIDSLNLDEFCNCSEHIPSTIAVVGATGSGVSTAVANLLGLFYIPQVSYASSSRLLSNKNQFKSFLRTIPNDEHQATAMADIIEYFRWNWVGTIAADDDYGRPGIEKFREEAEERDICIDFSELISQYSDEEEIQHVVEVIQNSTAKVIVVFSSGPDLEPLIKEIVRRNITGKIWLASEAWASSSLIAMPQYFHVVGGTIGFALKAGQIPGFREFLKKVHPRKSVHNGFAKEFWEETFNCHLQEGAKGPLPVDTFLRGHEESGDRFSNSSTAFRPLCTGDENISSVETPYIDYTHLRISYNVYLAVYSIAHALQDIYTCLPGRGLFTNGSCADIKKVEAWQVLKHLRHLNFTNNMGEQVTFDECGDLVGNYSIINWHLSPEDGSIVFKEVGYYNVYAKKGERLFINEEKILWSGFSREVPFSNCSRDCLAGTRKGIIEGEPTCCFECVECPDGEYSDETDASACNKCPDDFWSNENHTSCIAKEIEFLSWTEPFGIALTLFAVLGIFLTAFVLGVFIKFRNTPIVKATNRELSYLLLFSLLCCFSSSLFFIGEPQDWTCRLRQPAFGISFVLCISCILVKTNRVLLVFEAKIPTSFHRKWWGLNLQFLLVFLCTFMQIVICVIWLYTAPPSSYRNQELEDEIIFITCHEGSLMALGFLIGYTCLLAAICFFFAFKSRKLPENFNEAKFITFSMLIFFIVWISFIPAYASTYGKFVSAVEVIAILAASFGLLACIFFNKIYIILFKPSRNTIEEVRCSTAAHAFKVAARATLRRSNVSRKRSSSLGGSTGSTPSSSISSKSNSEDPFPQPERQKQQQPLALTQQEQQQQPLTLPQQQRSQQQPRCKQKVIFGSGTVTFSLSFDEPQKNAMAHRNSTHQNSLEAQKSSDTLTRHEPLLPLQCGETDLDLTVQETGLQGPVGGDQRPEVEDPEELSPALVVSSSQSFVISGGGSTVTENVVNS
The assay can be described thus: Human CaSR Antagonist Activity (CHO cells, NFAT-Luciferase reporter). It counts as cell-based. The conditions noted are these: 3.3 μm test compound; CaCl2 final 1.3 mM; 100% = reference carboxamide at 10 μM. Here is the method: CaSR antagonist activity measurement was performed using Bright-Glo Luciferase assay system (Promega Corporation). CHO cells in which human CaSR and NFAT-Luciferase reporter gene were forcibly expressed were suspended in MEM alpha (Wako Pure Chemical Industries, Ltd.) containing 10% dialyzed serum (HyClone). The cells in suspension was seeded in 384-well white plate (Corning) at 10,000/20 μL/well, and cultured in an incubator of 37° C., 5% CO2 for one day. A diluent of Test compound was prepared with assay buffer (MEM alpha containing 10 mM HEPES (Life Technologies) and 10% dialysis serum). The diluent was added to the plate at 5 μL/well and allowed to stand at 37° C. for 10 minutes. Further, a diluent of 7.8 mM CaCl2 prepared with assay buffer (final concentration 1.3 mM) was added at 5 μl/well and allowed to stand in an incubator of 37° C., 5% CO2 for 2 hours. Bright-Glo reagents (Promega Corporation) were added at 10 μL/well, and the obtained mixture was stirred for 5 minutes, and then luminescence intensity was measured using Multi-label reader Envision (PerkinElmer, Inc.). The activity (%) of the test compound was calculated with the definitions in which the luminescence intensity when DMSO is added in place of the test compound is defined as 0% inhibition; and the luminescence intensity when (5R)—N-(1-ethyl-1-(4-ethylphenyl)propyl)-2,7,7-trimethyl-5-phenyl-4,5,6,7-tetrahydropyrazolo[1,5-a]Pyrimidine-3-carboxamide at final concentration of 10 μM is added is defined as 100% inhibition.
For `COc1cccc(C23CC2CN(C(=O)c2cnn4c2N[C@@H](c2ccccc2)CC4(C)C)C3)c1` (stereo partly drawn) [Example 20, ((5R)-7,7-Dimethyl-5-phenyl-4,5,6,7-tetrahydropyrazolo[1,5-a]pyrimidin-3-yl)(1-(3-methoxyphenyl)-3-azabicyclo[3.1.0]hex-3-yl)methanone], the “Inhibition rate (%) at 3.3 μm” value was determined as 93%. As for `CC1(C)C[C@H](c2ccccc2)Nc2c(C(=O)N3CC4CC4(c4cccc(Cl)c4)C3)cnn21` (stereo partly drawn) [Example 17, (1-(3-Chlorophenyl)-3-azabicyclo[3.1.0]hex-3-yl)((5R)-7,7-dimethyl-5-phenyl-4,5,6,7-tetrahydropyrazolo[1,5-a]pyrimidin-3-yl)methanone], the “Inhibition rate (%) at 3.3 μm” value is given as 95%.

As for `Cc1cccc(C23CC2CN(C(=O)c2cnn4c2N[C@@H](c2ccccc2)CC4(C)C)C3)c1` (stereo partly drawn) [Example 23, ((5R)-7,7-Dimethyl-5-phenyl-4,5,6,7-tetrahydropyrazolo[1,5-a]pyrimidin-3-yl)(1-(3-methylphenyl)-3-azabicyclo[3.1.0]hex-3-yl)methanone], the “Inhibition rate (%) at 3.3 μm” value was found to be 92%. Still for that read-out and setting: for `CC1(C)C[C@H](c2ccccc2)Nc2c(C(=O)N3CC4CC4(c4ccc(C(F)(F)F)cc4F)C3)cnn21` (stereo partly drawn) [Example 29, ((5R)-7,7-Dimethyl-5-phenyl-4,5,6,7-tetrahydropyrazolo[1,5-a]pyrimidin-3-yl)(1-(2-fluoro-4-(trifluoromethyl)phenyl)-3-azabicyclo[3.1.0]hex-3-yl)methanone] the value was 92%.

Still in this assay, the particulars now being: CHO, 2 h, 3.3 μm test compound; CaCl2 final 1.3 mM; 100% = reference carboxamide at 10 μM; read-out: Inhibition rate (%) at 3.3 μm.
A word on the inhibition: it is the change of the read-out against control, counted positive when it falls. Regarding `CC1(C)C[C@H](c2ccccc2)Nc2c(C(=O)N3CC4CC4(c4cccc(C(F)(F)F)c4)C3)cnn21` (stereo partly drawn) [Example 25, ((5R)-7,7-Dimethyl-5-phenyl-4,5,6,7-tetrahydropyrazolo[1,5-a]pyrimidin-3-yl)(1-(3-(trifluoromethyl)phenyl)-3-azabicyclo[3.1.0]hex-3-yl)methanone], the inhibition at 3.3 µM turned out to be 97%. Turning to `CC1(C)C[C@H](c2ccccc2)Nc2c(C(=O)N3C[C@@H]4C[C@]4(C(F)F)C3)cnn21` [Example 47], the inhibition at 3.3 µM was 96%. On the same count and under the same terms, for `Cc1cccc(C23CN(C(=O)c4cnn5c4N[C@@H](c4ccccc4)CC5(C)C)CC2C3(F)F)c1` (stereo partly drawn) [Example 49, (6,6-Difluoro-1-(3-methylphenyl)-3-azabicyclo[3.1.0]hex-3-yl)((5R)-7,7-dimethyl-5-phenyl-4,5,6,7-tetrahydropyrazolo[1,5-a]pyrimidin-3-yl)methanone] the value was 136%; for `COc1ccccc1C12CN(C(=O)c3cnn4c3N[C@@H](c3ccccc3)CC4(C)C)CC1C2(F)F` (stereo partly drawn) [Example 52, (6,6-Difluoro-1-(2-methoxyphenyl)-3-azabicyclo[3.1 0]hex-3-yl)((5R)-7,7-dimethyl-5-phenyl-4.5,5,7-tetrahydropyrazolo[1,5-a]pyrimidin-3-yl)methanone], 111%; for `COc1cccc(C23CN(C(=O)c4cnn5c4N[C@@H](c4ccccc4)CC5(C)C)CC2C3(F)F)c1` (stereo partly drawn) [Example 51, (6,6-Difluoro-1-(3-methoxyphenyl)-3-azabicyclo[3.1.0]hex-3-yl)((5R)-7,7-dimethyl-5-phenyl-4,5,6,7-tetrahydropyrazolo[1,5-a]pyrimidin-3-yl)methanone], 115%.

For the compound `Cc1cccc(C23CC2CN(C(=O)c2cnn4c2N[C@@H](c2ccccc2)CC4(C)C)C3)c1` (stereo partly drawn) [Example 22, ((5R)-7,7-Dimethyl-5-phenyl-4,5,6,7-tetrahydropyrazolo[1,5-a]pyrimidin-3-yl)(1-(3-methylphenyl)-3-azabicyclo[3.1.0]hex-3-yl)methanone], the inhibition at 3.3 µM turned out to be 101%. On the same count and under the same terms, with `CC1(C)C[C@H](c2ccccc2)Nc2c(C(=O)N3C[C@H]4C[C@@]4(c4ccc(Cl)c(Cl)c4)C3)cnn21` [Example 2, ((1R,5S)-1-(3,4-Dichlorophenyl)-3-azabicyclo[3.1.0]hex-3-yl)((5R)-7,7-dimethyl-5-phenyl-4,5,6,7-tetrahydropyrazolo[1,5-a]pyrimidin-3-yl)methanone] the figure was 92%; with `CC1(C)C[C@H](c2ccccc2)Nc2c(C(=O)N3CC4C[C@]4(c4ccc(C(F)(F)F)cc4)C3)cnn21` (stereo partly drawn) [Example 8, ((5R)-7,7-Dimethyl-5-phenyl-4,5,6,7-tetrahydropyrazolo[1,5-a]pyrimidin-3-yl)(1-(4-(trifluoromethyl)phenyl)-3-azabicyclo[3.1.0]hex-3-yl)methanone], 92%; with `CC1(C)C[C@H](c2ccccc2)Nc2c(C(=O)N3CC4CC4(c4ccc(C(F)(F)F)cc4F)C3)cnn21` (stereo partly drawn) [Example 27, ((5R)-7,7-Dimethyl-5-phenyl-4,5,6,7-tetrahydropyrazolo[1,5-a]pyrimidin-3-yl)(1-(2-fluoro-4-(trifluoromethyl)phenyl)-3-azabicyclo[3.1.0]hex-3-yl)methanone], 111%. On to `CC1(C)C[C@H](c2ccccc2)Nc2c(C(=O)N3CC4CC4(c4ccncc4)C3)cnn21` (some centres unmarked) [Example 45], for which the inhibition at 3.3 µM turned out to be 96%. With `CC1(C)C[C@H](c2ccccc2)Nc2c(C(=O)N3CC4CC4(c4cccc(Cl)c4)C3)cnn21` (stereo partly drawn) [Example 16, (1-(3-Chlorophenyl)-3-azabicyclo[3.1.0]hex-3-yl)((5R)-7,7-dimethyl-5-phenyl-4,5,6,7-tetrahydropyrazolo[1,5-a]pyrimidin-3-yl)methanone], the inhibition at 3.3 µM was 100%. Same read-out and setting: for `CC1(C)C[C@H](c2ccccc2)Nc2c(C(=O)N3CC4CC4(c4ccc(C(F)(F)F)c(Cl)c4)C3)cnn21` (stereo partly drawn) [Example 12, (1-(3-Chloro-4-(trifluoromethyl)phenyl)-3-azabicyclo[3.1.0]hex-3-yl)((5R)-7,7-dimethyl-5-phenyl-4,5,6,7-tetrahydropyrazolo[1,5-a]pyrimidin-3-yl)methanone] the value was 90%; for `COc1cccc(C23CC2CN(C(=O)c2cnn4c2N[C@@H](c2ccccc2)CC4(C)C)C3)c1` (stereo partly drawn) [Example 19, ((5R)-7,7-Dimethyl-5-phenyl-4,5,6,7-tetrahydropyrazolo[1,5-a]pyrimidin-3-yl)(1-(3-methoxyphenyl)-3-azabicyclo[3.1.0]hex-3-yl)methanone], 99%; for `CC1(C)C[C@H](c2ccccc2)Nc2c(C(=O)N3CC4CC4(c4ccsc4)C3)cnn21` (stereo partly drawn) [Example 46, ((5R)-7,7-Dimethyl-5-phenyl-4,5,6,7-tetrahydropyrazolo[1,5-a]pyrimidin-3-yl)(1-(3-thienyl)-3-azabicyclo[3.1.0]hex-3-yl)methanone], 99%.

As for `Cc1ccc(C23CN(C(=O)c4cnn5c4N[C@@H](c4ccccc4)CC5(C)C)CC2C3(F)F)cc1` (stereo partly drawn) [Example 48, (6,6-Difluoro-1-(4-methylphenyl)-3-azabicyclo[3.1.0]hex-3-yl)((5R)-7,7-dimethyl-5-phenyl-4,5,6,7-tetrahydropyrazolo[1,5-a]pyrimidin-3-yl)methanone], the inhibition at 3.3 µM came to 117%.

Regarding `COc1ccc(C23CN(C(=O)c4cnn5c4N[C@@H](c4ccccc4)CC5(C)C)CC2C3(F)F)cc1` (stereo partly drawn) [Example 50, (6.6-Difluoro-1-(4-methoxyphenyl)-3-azabicyclo[3.1.0]hex-3-yl)((5R)-7,7-dimethyl-5-phenyl-4,5,6,7-tetrahydropyrazolo[1,5-a]pyrimidin-3-yl)methanone], the inhibition at 3.3 µM was 128%.

(Values after patent US10919891B2, “Heterocyclic compound” (TAKEDA PHARMACEUTICAL COMPANY LIMITED, priority 2017, dated 2021).)
